Laboratory results reported in ChEMBL document CHEMBL1201862, “PubChem BioAssay data set” (2004).
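Protocol summary: plate cells (96-well), add compound at 5 concentrations, incubate 48 h, interpolate endpoints linearly. The concentration for 50% growth inhibition is given as GI50.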 Calls of active or inactive are those of the source. No stated cut-off is given here; in the data, active = GI50 up to about 1.1 µM and inactive = higher.

How the values were obtained:
Assay in all cases: NCI-60 cell line screen, 48 h
A498 = tested on: A498
HT-29 = tested on: HT-29
MCF7 = tested on: MCF7
MDA-MB-231 = tested on: MDA-MB-231
MDA-MB-435 = tested on: MDA-MB-435
MDA-N = tested on: MDA-N
NCI-H23 = tested on: NCI-H23
NCI-H460 = tested on: NCI-H460
NCI-H522 = tested on: NCI-H522
NCI/ADR-RES = tested on: NCI/ADR-RES
OVCAR-5 = tested on: OVCAR-5
PC-3 = tested on: PC-3
SF-539 = tested on: SF-539
SK-MEL-2 = tested on: SK-MEL-2
SW-620 = tested on: SW-620
U-251 = tested on: U-251
UACC-257 = tested on: UACC-257
UACC-62 = tested on: UACC-62
786-0 = tested on: 786-0
OVCAR-8 = tested on: OVCAR-8

| Structure (SMILES) | GI50 (A498) | GI50 (HT-29) | GI50 (MCF7) | GI50 (MDA-MB-231) | GI50 (MDA-MB-435) | GI50 (MDA-N) | GI50 (NCI-H23) | GI50 (NCI-H460) | GI50 (NCI-H522) | GI50 (NCI/ADR-RES) | GI50 (OVCAR-5) | GI50 (PC-3) | GI50 (SF-539) | GI50 (SK-MEL-2) | GI50 (SW-620) | GI50 (U-251) | GI50 (UACC-257) | GI50 (UACC-62) | GI50 (786-0) | GI50 (OVCAR-8) |
| --- | --- | --- | --- | --- | --- | --- | --- | --- | --- | --- | --- | --- | --- | --- | --- | --- | --- | --- | --- | --- |
| Oc1c(Br)c(-c2ccccc2)nc2ccccc12 | 5.35 µM (inactive) | > 60.4 µM (inactive) | 59.2 µM (inactive) | 2.87 µM (inactive) | 43.3 µM (inactive) | 39.2 µM (inactive) | 22.1 µM (inactive) | 10 µM (inactive) | > 10 µM (inactive) | 35.1 µM (inactive) | > 10 µM (inactive) | 9.38 µM (inactive) | 82.8 µM (inactive) | > 10 µM (inactive) | 97.5 µM (inactive) | 98.4 µM (inactive) | 36.7 µM (inactive) | 21.9 µM (inactive) | – | – |
| Cc1ccc(C)c(C(=N)c2ccccc2Cc2ccccc2)c1 | 21.7 µM (inactive) | 12.9 µM (inactive) | 15.7 µM (inactive) | 22.8 µM (inactive) | 17.9 µM (inactive) | 23 µM (inactive) | 26.9 µM (inactive) | 14.7 µM (inactive) | 13.2 µM (inactive) | 25.4 µM (inactive) | 25.9 µM (inactive) | 26.7 µM (inactive) | 17.9 µM (inactive) | 15.3 µM (inactive) | 31.2 µM (inactive) | 15.5 µM (inactive) | 22.9 µM (inactive) | 14.2 µM (inactive) | 17 µM (inactive) | 31.7 µM (inactive) |
| CC1=C(C(=O)N[C@@H](Cc2ccccc2)C(=O)O)N2C(=O)[C@@H](NC(=O)[C@@H](N)CC(C)C)[C@H]2SC1 | > 100 µM (inactive) | – | > 100 µM (inactive) | > 100 µM (inactive) | > 100 µM (inactive) | > 100 µM (inactive) | – | > 100 µM (inactive) | > 100 µM (inactive) | > 100 µM (inactive) | > 100 µM (inactive) | > 100 µM (inactive) | > 100 µM (inactive) | > 100 µM (inactive) | > 100 µM (inactive) | > 100 µM (inactive) | > 100 µM (inactive) | > 100 µM (inactive) | > 100 µM (inactive) | > 100 µM (inactive) |
| CSC(SC)=C1CC(=O)Nc2ccccc2C1=O | > 100 µM (inactive) | > 100 µM (inactive) | 47.6 µM (inactive) | > 100 µM (inactive) | 44.8 µM (inactive) | 40.6 µM (inactive) | 29.9 µM (inactive) | > 100 µM (inactive) | 57 µM (inactive) | > 100 µM (inactive) | > 100 µM (inactive) | > 100 µM (inactive) | 58.7 µM (inactive) | 53.3 µM (inactive) | – | 40.3 µM (inactive) | 23.6 µM (inactive) | 24.6 µM (inactive) | 45.6 µM (inactive) | > 100 µM (inactive) |
| CCOC(=O)CC1CCN(C(=O)c2ccccc2)C2Cc3c([nH]c4ccccc34)C12C[N+](=O)[O-] (stereo unspecified) | > 100 µM (inactive) | 62.2 µM (inactive) | 41 µM (inactive) | > 100 µM (inactive) | 97.3 µM (inactive) | > 100 µM (inactive) | 73.6 µM (inactive) | 65.6 µM (inactive) | > 100 µM (inactive) | 49.4 µM (inactive) | > 100 µM (inactive) | 43.5 µM (inactive) | > 100 µM (inactive) | > 100 µM (inactive) | > 100 µM (inactive) | 78.3 µM (inactive) | > 100 µM (inactive) | 58.7 µM (inactive) | – | 79.3 µM (inactive) |
| COC(=O)c1n[nH]c(C)c1/N=N/N(C)CCC#N | 76 µM (inactive) | 23.3 µM (inactive) | 7.14 µM (inactive) | 24.8 µM (inactive) | 59.8 µM (inactive) | 47.5 µM (inactive) | 16.3 µM (inactive) | 14.2 µM (inactive) | 10.5 µM (inactive) | 16.2 µM (inactive) | – | 20 µM (inactive) | 15.2 µM (inactive) | 23.6 µM (inactive) | 14 µM (inactive) | 16.7 µM (inactive) | 50.7 µM (inactive) | 15.7 µM (inactive) | 17.7 µM (inactive) | 14.4 µM (inactive) |
| Cc1ccc([N+](=O)[O-])cc1S(=O)(=O)Nc1ccc(C2=NOC(c3ccco3)C2)cc1 (stereo unspecified) | 15.1 µM (inactive) | 22.8 µM (inactive) | 11.6 µM (inactive) | 17.1 µM (inactive) | 3.03 µM (inactive) | 6.44 µM (inactive) | 16.5 µM (inactive) | 18.5 µM (inactive) | 10.7 µM (inactive) | 14.5 µM (inactive) | 22.9 µM (inactive) | 15.7 µM (inactive) | 23 µM (inactive) | 16 µM (inactive) | 18.7 µM (inactive) | – | 17.6 µM (inactive) | 11.7 µM (inactive) | 18.2 µM (inactive) | 39.2 µM (inactive) |
| O=C(N/C=C1\C(=O)Oc2ccccc2C1=O)Oc1ccccc1 | 15.2 µM (inactive) | 40.8 µM (inactive) | 35.1 µM (inactive) | 16.7 µM (inactive) | 20.1 µM (inactive) | 18.1 µM (inactive) | 25.6 µM (inactive) | 33.9 µM (inactive) | 25 µM (inactive) | 27.4 µM (inactive) | 46.1 µM (inactive) | 29.5 µM (inactive) | 16 µM (inactive) | 14.5 µM (inactive) | 30.8 µM (inactive) | 23.9 µM (inactive) | 31 µM (inactive) | 20 µM (inactive) | 23.7 µM (inactive) | 25.8 µM (inactive) |
| COc1cc2cc(C(=O)Nc3cc4n(n3)-c3ccccc3C4)[nH]c2c(OC)c1OC | 23.4 µM (inactive) | 11.9 µM (inactive) | 2.58 µM (inactive) | 8.04 µM (inactive) | 1.44 µM (inactive) | 2.35 µM (inactive) | 2.75 µM (inactive) | 1.64 µM (inactive) | 1.08 µM (active) | 1.25 µM (inactive) | 8.93 µM (inactive) | 2.71 µM (inactive) | 7.08 µM (inactive) | 2.3 µM (inactive) | 7.08 µM (inactive) | 8.04 µM (inactive) | 2.9 µM (inactive) | – | 8.39 µM (inactive) | 1.26 µM (inactive) |
| CC(=O)OC1COC(Nc2nc(N)n(C)c(=O)c2N=O)C(OC(C)=O)C1OC(C)=O (stereo unspecified) | > 10 µM (inactive) | > 10 µM (inactive) | > 10 µM (inactive) | > 10 µM (inactive) | > 10 µM (inactive) | > 10 µM (inactive) | > 10 µM (inactive) | > 10 µM (inactive) | > 10 µM (inactive) | > 10 µM (inactive) | > 10 µM (inactive) | > 10 µM (inactive) | > 10 µM (inactive) | > 10 µM (inactive) | > 10 µM (inactive) | > 10 µM (inactive) | > 10 µM (inactive) | > 10 µM (inactive) | > 10 µM (inactive) | > 10 µM (inactive) |
| C/C(=N\Nc1ncnc2ccccc12)c1ccccn1 | 0.183 µM (active) | 0.0182 µM (active) | 0.0138 µM (active) | < 0.0196 µM (active) | 0.195 µM (active) | 0.384 µM (active) | < 0.0244 µM (active) | 0.0294 µM (active) | < 0.01 µM (active) | < 0.0168 µM (active) | 1.61 µM (inactive) | < 0.0226 µM (active) | 0.0279 µM (active) | 2.79 µM (inactive) | < 0.0267 µM (active) | < 0.0214 µM (active) | < 0.0161 µM (active) | 0.0948 µM (active) | < 0.0236 µM (active) | < 0.01 µM (active) |
| Nc1ccc(Oc2ccc(C3(c4ccc(Oc5ccc(N)cc5)cc4)C4CC5C6CC7CC5C3C(C7)C6C4)cc2)cc1 | 4.01 µM (inactive) | 0.774 µM (active) | 7.53 µM (inactive) | 23.1 µM (inactive) | 19 µM (inactive) | 14.5 µM (inactive) | 26.3 µM (inactive) | 21.1 µM (inactive) | > 81.7 µM (inactive) | > 100 µM (inactive) | > 100 µM (inactive) | > 45.4 µM (inactive) | 42.5 µM (inactive) | > 100 µM (inactive) | 97.3 µM (inactive) | 1.03 µM (active) | > 58.6 µM (inactive) | 38.4 µM (inactive) | 9.66 µM (inactive) | 4.97 µM (inactive) |
| O=C(Nc1c(Cl)cc([N+](=O)[O-])cc1Cl)C(=O)C1C(=O)NC(=S)NC1=O | > 100 µM (inactive) | > 100 µM (inactive) | > 100 µM (inactive) | > 100 µM (inactive) | > 100 µM (inactive) | > 100 µM (inactive) | > 100 µM (inactive) | > 100 µM (inactive) | > 100 µM (inactive) | > 100 µM (inactive) | > 100 µM (inactive) | > 100 µM (inactive) | > 100 µM (inactive) | > 100 µM (inactive) | > 100 µM (inactive) | > 100 µM (inactive) | > 100 µM (inactive) | > 100 µM (inactive) | > 100 µM (inactive) | > 100 µM (inactive) |
| Cc1c(C(=O)NNc2ccccc2)n2c(S)nnc2c2ccccc12 | > 100 µM (inactive) | > 100 µM (inactive) | > 100 µM (inactive) | > 100 µM (inactive) | > 100 µM (inactive) | > 100 µM (inactive) | > 100 µM (inactive) | > 100 µM (inactive) | > 100 µM (inactive) | > 100 µM (inactive) | > 100 µM (inactive) | > 100 µM (inactive) | > 100 µM (inactive) | > 100 µM (inactive) | > 100 µM (inactive) | > 100 µM (inactive) | > 100 µM (inactive) | > 100 µM (inactive) | > 100 µM (inactive) | > 100 µM (inactive) |
